Source: patent US20240269295A1, “C-MET TARGETED APTAMER DRUG CONJUGATE AND METHOD FOR TREATING TUMOR” (Hangzhou Institute of Medicine, Chinese Academy of Sciences, priority 2023, published 2024)

Legend:
[1] = system: large triple-negative breast cancer PDX model tumors; experiment: Experiment against large tumors in vivo (triple-negative breast cancer PDX); parameters: species or system mice; conditions: tumor 400-500 mm^3; tail vein, 20 mg/kg once every seven days, two times
Description: Six mice with a tumor size of 400-500 mm^3 in a triple-negative breast cancer PDX model were randomly divided into two groups. In the experiment, the two groups were injected with a clinical first-line chemotherapy drug Docetaxel, and a c-Met targeted aptamer drug conjugate c-Met-ApDC through the tail vein, respectively at a dosage of 20 mg/kg Docetaxel (administrated once every seven days, for two times in total) or 0.36 mg/kg equivalent of MMAE (administrated once every four days, for three times in total). The weights of the mice, the lengths of tumors (a), and the widths of tumors (b) were measured and recorded at each injection. The calculation formula of tumor volume (V) was: V=(a×b^2)/2. The tumor volume exceeding 1,500 mm^3 or the weight loss exceeding 15% was taken as an endpoint of the experiment. The mice were euthanized, and the experiment was terminated. […] On about seven days of administration, the tumor volume in the group administrated with the chemotherapeutic drug began to increase, while the tumor of the group administrated with the reagent of the present invention began to decrease.

[2] = system: large triple-negative breast cancer PDX model tumors; experiment: Experiment against large tumors in vivo after multiple times of administration; parameters: species or system mice; conditions: Docetaxel alone, 20 mg/kg once every seven days, two times
Description: Six mice with a tumor size of 400-500 mm^3 in a triple-negative breast cancer PDX model were randomly divided into two groups. In the experiment, the two groups were injected with a clinical first-line chemotherapy drug, Docetaxel and a c-Met targeted aptamer drug conjugate c-Met-ApDC through the tail vein, respectively, at a dosage of 20 mg/kg Docetaxel (administrated once every seven days, for two times in total) or 0.36 mg/kg equivalent of MMAE (administrated once every four days, for three times in total).
The weights of the mice, the lengths of tumors (a), and the widths of tumors (b) were measured and recorded at each injection. The calculation formula of tumor volume (V) was: V=(a×b^2)/2. The tumor volume exceeding 1,500 mm^3 or the weight loss exceeding 15% was taken as an endpoint of the experiment. The mice were euthanized, and the experiment was terminated. In the group administrated with Docetaxel, 0.36 mg/kg equivalent of MMAE was injected into the mice through the tail vein once every four days continuously for three times after the tumor volume exceeded 1,500 mm^3. […] It was almost less than 200 mm^3 after 44 days.

[3] = molecular target: T1, c-Met (hepatocyte growth factor receptor) (UniProt P08581 P08581:25-932); experiment: SPR; concentrations 100-500 nM
T1 sequence (P08581 25-932, one chain of several): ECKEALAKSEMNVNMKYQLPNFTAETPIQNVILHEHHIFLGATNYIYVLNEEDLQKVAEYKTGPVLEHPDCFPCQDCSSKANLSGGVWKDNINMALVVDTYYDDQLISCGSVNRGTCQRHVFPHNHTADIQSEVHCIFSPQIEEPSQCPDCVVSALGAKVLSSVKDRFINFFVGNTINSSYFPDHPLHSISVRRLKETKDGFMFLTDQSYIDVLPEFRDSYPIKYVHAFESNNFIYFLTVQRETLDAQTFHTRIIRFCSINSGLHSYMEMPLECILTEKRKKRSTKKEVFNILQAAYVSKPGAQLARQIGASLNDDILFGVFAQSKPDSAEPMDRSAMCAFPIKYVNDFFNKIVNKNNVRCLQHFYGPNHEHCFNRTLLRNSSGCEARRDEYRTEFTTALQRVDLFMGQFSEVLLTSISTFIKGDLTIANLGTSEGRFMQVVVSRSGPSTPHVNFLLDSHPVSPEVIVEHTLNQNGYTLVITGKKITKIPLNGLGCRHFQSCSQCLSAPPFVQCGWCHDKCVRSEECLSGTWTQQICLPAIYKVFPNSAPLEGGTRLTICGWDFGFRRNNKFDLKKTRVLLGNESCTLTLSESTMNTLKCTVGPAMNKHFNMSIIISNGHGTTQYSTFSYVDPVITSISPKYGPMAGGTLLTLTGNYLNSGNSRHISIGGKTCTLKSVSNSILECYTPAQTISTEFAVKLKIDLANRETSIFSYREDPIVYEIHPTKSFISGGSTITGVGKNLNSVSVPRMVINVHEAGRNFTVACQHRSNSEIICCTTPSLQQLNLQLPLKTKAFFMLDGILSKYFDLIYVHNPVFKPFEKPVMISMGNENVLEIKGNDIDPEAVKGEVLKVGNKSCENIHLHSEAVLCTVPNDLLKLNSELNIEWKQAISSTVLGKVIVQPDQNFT
Description: (§1) The specific experimental process was as follows: the c-Met protein-bound aptamer CLN0004-52 (sequence SEQ: ID2: […]) reported in the literature was selected and modified with a mercapto group at the 3-terminal and then conjugated with vcMMAE to construct the c-Met targeted aptamer drug conjugate CLN0004-52-MMAE. The affinity of CLN0004-52-MMAE and SL1-MMAE with a c-Met protein was characterized by surface plasmon resonance spectroscopy. The binding forces of two c-Met ApDCs were determined at concentrations of 100, 200, 300, 400, and 500 nM. […] Strong affinity stated that it could bind with c-Met more strongly, enhancing the therapeutic effect.

[4] = molecular target: T1, c-Met (hepatocyte growth factor …); experiment: SPR; concentrations 100-500 nM; unit μm [sic]
Description: as §1

For `CC(=O)O[C@@]12CO[C@@H]1C[C@H](O)[C@@]1(C)C(=O)[C@H](O)C3=C(C)[C@@H](OC(=O)[C@H](O)[C@@H](NC(=O)OC(C)(C)C)c4ccccc4)C[C@@](O)([C@@H](OC(=O)c4ccccc4)[C@H]21)C3(C)C` [Docetaxel], the “inhibitory effect on large tumors” value [1] was “no apparent inhibitory effect”, the tumor volume increase [1] was 3 times the volume and the tumor volume course [2] was “gradually increased”.

Molecule ATCAGGCTGGATGGTAGCTCGGTCGGGGTGGGTGGGTTGGCAAGTCTGAT (ssDNA, 3'-thiol conjugated to maleimide vcMMAE) [SL1-MMAE (c-Met-ApDC)] has a Kd [3] of 0.0775 µM.

B1: CLN0004-52-MMAE (ssDNA)
DNA: GAGTGCGTAATGGTACGATTTGGGAAGTGGCTTGGGGTGGGATTAGTTTTGG
modifications: 3'-thiol conjugated to maleimide vcMMAE
B1 was tested, and the Kd [4] was 21.5 µM.
